This passage reports mutagenic call results from PubChem BioAssay AID1259407 (Chemical Carcinogenesis Research Information System (CCRIS), 2018).

The source made the active and inactive calls. No rule for the calls is given here.

The test system of this series is CCRIS mutagenicity, Ames/micronucleus/aberration tests. Briefly: CCRIS mutagenicity studies.
Where [1] appears, read: Test System: AMES SALMONELLA TYPHIMURIUM, Strain/Indicator: TA98, Metabolic Activation: NONE, Method: PREINCUBATION
[2] abbreviates: Test System: AMES SALMONELLA TYPHIMURIUM, Strain/Indicator: TA98, Metabolic Activation: NONE, Method: STANDARD PLATE.
The mark [3] stands for this setting: Test System: AMES SALMONELLA TYPHIMURIUM, Strain/Indicator: TA100, Metabolic Activation: NONE, Method: PREINCUBATION

Regarding `CC(=O)OCc1c(O)c(C(=O)O)c(C)c2c1OC(=O)c1c(C)cc(O)c(C=O)c1O2`, the mutagenic call was “inactive; negative” under setting [1]; “inactive; negative” under setting [2]; “inactive; negative” (Test System: AMES SALMONELLA TYPHIMURIUM, Strain/Indicator: TA98, Metabolic Activation: RAT, LIVER, S-9, Method: PREINCUBATION); “inactive; negative” (Test System: AMES SALMONELLA TYPHIMURIUM, Strain/Indicator: TA98, Metabolic Activation: RAT, LIVER, S-9, Method: STANDARD PLATE); “active; positive” under setting [3]; “inactive; negative” (Test System: AMES SALMONELLA TYPHIMURIUM, Strain/Indicator: TA100, Metabolic Activation: NONE, Method: STANDARD PLATE). Moreover, the mutagenic call is, setting by setting: (Test System: AMES SALMONELLA TYPHIMURIUM, Strain/Indicator: TA100, Metabolic Activation: RAT, LIVER, S-9, Method: PREINCUBATION) “active; positive”; (Test System: AMES SALMONELLA TYPHIMURIUM, Strain/Indicator: TA100, Metabolic Activation: RAT, LIVER, S-9, Method: STANDARD PLATE) “active; positive”.

As to `[Cd]`, the mutagenic call under setting [2] was “inactive; negative”; the mutagenic call (Test System: AMES SALMONELLA TYPHIMURIUM, Strain/Indicator: TA98, Metabolic Activation: RAT, LIVER, S-9, PHENOBARBITAL, Method: STANDARD PLATE) is “inactive; negative”; the mutagenic call (Test System: AMES SALMONELLA TYPHIMURIUM, Strain/Indicator: TA102, Metabolic Activation: NONE, Method: STANDARD PLATE) was “active; positive”; the mutagenic call (Test System: AMES SALMONELLA TYPHIMURIUM, Strain/Indicator: TA102, Metabolic Activation: RAT, LIVER, S-9, PHENOBARBITAL, Method: STANDARD PLATE) is “inactive; negative”; the mutagenic call (Test System: AMES SALMONELLA TYPHIMURIUM, Strain/Indicator: TA1535, Metabolic Activation: NONE, Method: STANDARD PLATE) was “inactive; negative”; the mutagenic call (Test System: AMES SALMONELLA TYPHIMURIUM, Strain/Indicator: TA1535, Metabolic Activation: RAT, LIVER, S-9, PHENOBARBITAL, Method: STANDARD PLATE) was “inactive; negative”. Besides, the mutagenic call was “inactive; negative” (Test System: AMES SALMONELLA TYPHIMURIUM, Strain/Indicator: TA1537, Metabolic Activation: NONE, Method: STANDARD PLATE) and “inactive; negative” (Test System: AMES SALMONELLA TYPHIMURIUM, Strain/Indicator: TA1537, Metabolic Activation: RAT, LIVER, S-9, PHENOBARBITAL, Method: STANDARD PLATE).

Take `O=Nc1ccc(NO)cc1`: the mutagenic call is, setting by setting: (End Point: IN VITRO CHROMOSOMAL ABERRATIONS, Test System: CHL CELLS, Metabolic Activation: NONE) “active; positive (structural changes)”; (End Point: IN VITRO CHROMOSOMAL ABERRATIONS, Test System: CHL CELLS, Metabolic Activation: RAT, LIVER, S-9, SODIUM PHENOBARBITAL AND 5,6-BENZOFLAVONE) “active; positive (structural changes)”; under setting [2], “active; positive”; (Test System: AMES SALMONELLA TYPHIMURIUM, Strain/Indicator: TA98, Metabolic Activation: S-9, PHENOBARBITONE AND BETA-NAPHTHOFLAVONE, Method: STANDARD PLATE) “active; positive”; (Test System: E. COLI, Strain/Indicator: WP2 UVRA, Metabolic Activation: HAMSTER, LIVER, S-9, AROCLOR 1254, Method: STANDARD PLATE) “inactive; negative”; (Test System: E. COLI, Strain/Indicator: WP2 UVRA, Metabolic Activation: HAMSTER, LIVER, S-9, Method: STANDARD PLATE) “inactive; negative”. The mutagenic call is, setting by setting: (Test System: E. COLI, Strain/Indicator: WP2 UVRA, Metabolic Activation: MOUSE, LIVER, S-9, AROCLOR 1254, Method: STANDARD PLATE) “inactive; negative”; (Test System: E. COLI, Strain/Indicator: WP2 UVRA, Metabolic Activation: MOUSE, LIVER, S-9, Method: STANDARD PLATE) “inactive; negative”; (Test System: E. COLI, Strain/Indicator: WP2 UVRA, Metabolic Activation: NONE, Method: STANDARD PLATE) “inactive; negative”; (Test System: E. COLI, Strain/Indicator: WP2 UVRA, Metabolic Activation: RAT, LIVER, S-9, AROCLOR 1254, Method: STANDARD PLATE) “inactive; negative”; (Test System: E. COLI, Strain/Indicator: WP2 UVRA, Metabolic Activation: RAT, LIVER, S-9, Method: STANDARD PLATE) “inactive; negative”; (Test System: MOUSE LYMPHOMA, Strain/Indicator: L5178Y (HPRT), Metabolic Activation: NONE, Method: SUSPENSION/PLATE) “inactive; negative”. Besides, the mutagenic call reads like this: (Test System: MOUSE LYMPHOMA, Strain/Indicator: L5178Y (TK+/TK-), Metabolic Activation: NONE, Method: SUSPENSION/PLATE) “active; positive”; (Test System: UDS RODENT HEPATOCYTES, Strain/Indicator: THY INCORP, Metabolic Activation: NONE, Method: IN VIVO) “inactive; negative”.

On to `C=C(C)CC(C)(C)C`, for which the mutagenic call under setting [1] was “inactive; negative”; the mutagenic call (Test System: AMES SALMONELLA TYPHIMURIUM, Strain/Indicator: TA98, Metabolic Activation: RAT, LIVER, S-9, PHENOBARBITAL AND BETA-NAPHTHOFLAVONE, Method: PREINCUBATION) was “inactive; negative”; the mutagenic call under setting [3] was “inactive; negative”; the mutagenic call (Test System: AMES SALMONELLA TYPHIMURIUM, Strain/Indicator: TA100, Metabolic Activation: RAT, LIVER, S-9, PHENOBARBITAL AND BETA-NAPHTHOFLAVONE, Method: PREINCUBATION) was “inactive; negative”; the mutagenic call (Test System: AMES SALMONELLA TYPHIMURIUM, Strain/Indicator: TA102, Metabolic Activation: NONE, Method: PREINCUBATION) was “inactive; negative”; the mutagenic call (Test System: AMES SALMONELLA TYPHIMURIUM, Strain/Indicator: TA102, Metabolic Activation: RAT, LIVER, S-9, PHENOBARBITAL AND BETA-NAPHTHOFLAVONE, Method: PREINCUBATION) was “inactive; negative”. Moreover, the mutagenic call is, setting by setting: (Test System: AMES SALMONELLA TYPHIMURIUM, Strain/Indicator: TA104, Metabolic Activation: NONE, Method: PREINCUBATION) “inactive; negative”; (Test System: AMES SALMONELLA TYPHIMURIUM, Strain/Indicator: TA104, Metabolic Activation: RAT, LIVER, S-9, PHENOBARBITAL AND BETA-NAPHTHOFLAVONE, Method: PREINCUBATION) “inactive; negative”; (Test System: AMES SALMONELLA TYPHIMURIUM, Strain/Indicator: TA1535, Metabolic Activation: NONE, Method: PREINCUBATION) “inactive; negative”; (Test System: AMES SALMONELLA TYPHIMURIUM, Strain/Indicator: TA1535, Metabolic Activation: RAT, LIVER, S-9, PHENOBARBITAL AND BETA-NAPHTHOFLAVONE, Method: PREINCUBATION) “inactive; negative”; (Test System: AMES SALMONELLA TYPHIMURIUM, Strain/Indicator: TA1537, Metabolic Activation: NONE, Method: PREINCUBATION) “inactive; negative”; (Test System: AMES SALMONELLA TYPHIMURIUM, Strain/Indicator: TA1537, Metabolic Activation: RAT, LIVER, S-9, PHENOBARBITAL AND BETA-NAPHTHOFLAVONE, Method: PREINCUBATION) “inactive; negative”. Moreover, the mutagenic call reads like this: (Test System: E. COLI, Strain/Indicator: WP2UVRA/PKM101, Metabolic Activation: NONE, Method: PREINCUBATION) “inactive; negative”; (Test System: E. COLI, Strain/Indicator: WP2UVRA/PKM101, Metabolic Activation: RAT, LIVER, S-9, PHENOBARBITAL AND BETA-NAPHTHOFLAVONE, Method: PREINCUBATION) “inactive; negative”; (Test System: E. COLI, Strain/Indicator: WP2UVRA, Metabolic Activation: NONE, Method: PREINCUBATION) “inactive; negative”; (Test System: E. COLI, Strain/Indicator: WP2UVRA, Metabolic Activation: RAT, LIVER, S-9, PHENOBARBITAL AND BETA-NAPHTHOFLAVONE, Method: PREINCUBATION) “inactive; negative”.

Turning to `CCOC(=O)C(=NNc1ccc(-c2ccc(NN=C(C(=O)OCC)C(=O)OCC)c(OC)c2)cc1OC)C(=O)OCC`, the mutagenic call (Test System: AMES SALMONELLA TYPHIMURIUM, Strain/Indicator: TA98, Metabolic Activation: HAMSTER, LIVER, S-9, Method: PREINCUBATION (PRIVAL METHOD)) is “inactive; negative”.
